Results taken from ChEMBL document CHEMBL5230113, “2-substituted benzothiazoles as antiproliferative agents: Novel insights on structure-activity relationships” (Eur J Med Chem, 2020).
In brackets after ≈: the same amount, converted by molar mass. Blank lines part the entries; values can stand above or below the molecule they belong to.

Columns and labels:
HCC4017 = experiment: Cytotoxicity against human HCC4017 cells assessed as cell growth inhibition; type: functional, cell-based
[1] = Cytotoxicity against human HCC4018 cells assessed as cell growth inhibition; type: functional, cell-based
Histone deacetylase 1 = Histone deacetylase 1 (Homo sapiens, UniProt Q13547); experiment: Inhibition of HDAC1 (unknown origin)
C6 = experiment: Cytotoxicity against rat C6 cells assessed as inhibition of cell growth; type: functional, cell-based
HepG2 = experiment: Cytotoxicity against human HepG2 cells assessed as inhibition of cell growth; type: functional, cell-based
HeLa = experiment: Antiproliferative activity against human HeLa cells assessed as cell growth inhibition; type: functional, cell-based
MDA-MB-231 [2] = experiment: Cytotoxicity against human MDA-MB-231 cells assessed as cell growth inhibition; type: functional, cell-based
A549 = experiment: Antiproliferative activity against human A549 cells assessed as cell growth inhibition; type: functional, cell-based
MCF7 = experiment: Cytotoxicity against human MCF7 cells assessed as inhibition of cell growth; type: functional, cell-based
DU-145 = experiment: Cytotoxicity against human DU-145 cells assessed as cell growth inhibition; type: functional
DB = experiment: Antiproliferative activity against human DB cells assessed as cell growth inhibition; type: functional, cell-based
MV4-11 = experiment: Antiproliferative activity against human MV4-11 cells assessed as cell growth inhibition; type: functional, cell-based
[3] = target: Prostaglandin G/H synthase 1 (Homo sapiens, UniProt P23219); experiment: Inhibition of COX-1 (unknown origin)
[4] = target: T1, Prostaglandin G/H synthase 2 (Homo sapiens, UniProt P35354); experiment: Inhibition of COX-2 (unknown origin)
T1 sequence (P35354 whole entry): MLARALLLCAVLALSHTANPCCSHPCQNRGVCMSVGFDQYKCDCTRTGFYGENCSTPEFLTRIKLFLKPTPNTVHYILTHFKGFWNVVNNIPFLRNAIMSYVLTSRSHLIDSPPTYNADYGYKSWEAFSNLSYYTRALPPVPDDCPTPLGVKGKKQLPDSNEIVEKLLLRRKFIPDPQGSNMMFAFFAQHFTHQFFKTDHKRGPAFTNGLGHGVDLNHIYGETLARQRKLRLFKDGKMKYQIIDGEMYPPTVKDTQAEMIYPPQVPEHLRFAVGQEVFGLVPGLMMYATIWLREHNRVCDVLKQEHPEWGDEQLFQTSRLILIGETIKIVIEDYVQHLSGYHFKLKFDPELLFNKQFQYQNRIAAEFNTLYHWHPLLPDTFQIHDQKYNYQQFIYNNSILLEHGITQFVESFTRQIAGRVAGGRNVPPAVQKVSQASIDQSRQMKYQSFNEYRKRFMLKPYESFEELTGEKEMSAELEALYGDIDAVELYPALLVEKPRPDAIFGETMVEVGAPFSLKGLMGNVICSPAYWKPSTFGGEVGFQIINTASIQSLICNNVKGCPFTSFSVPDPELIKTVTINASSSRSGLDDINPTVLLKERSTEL

SiHa = experiment: Antiproliferative activity against human SiHa cells assessed as cell growth inhibition; type: functional, cell-based
[5] = Activation of procaspase-3 (unknown origin); set-up: species or system Homo sapiens
MDA-MB-231 [6] = experiment: Potency index, ratio of PAC-1 IC50 to test compound IC50 for antiproliferative activity against human MDA-MB-231 cells assessed as inhibition of cell growth; type: functional; settings: pooled result: one value given for 5 cell lines, strains, targets or settings
HT-29 = experiment: Antiproliferative activity against human HT-29 cells assessed as inhibition of cell growth; type: functional, cell-based
SK-N-SH = experiment: Antiproliferative activity against human SK-N-SH cells assessed as inhibition of cell growth; type: functional, cell-based
NCI-H226 = experiment: Antiproliferative activity against human NCI-H226 cells assessed as inhibition of cell growth; type: functional, cell-based
MKN-45 = experiment: Antiproliferative activity against human MKN-45 cells assessed as inhibition of cell growth; type: functional, cell-based

Sequence of Prostaglandin G/H synthase 1 (P23219 whole entry): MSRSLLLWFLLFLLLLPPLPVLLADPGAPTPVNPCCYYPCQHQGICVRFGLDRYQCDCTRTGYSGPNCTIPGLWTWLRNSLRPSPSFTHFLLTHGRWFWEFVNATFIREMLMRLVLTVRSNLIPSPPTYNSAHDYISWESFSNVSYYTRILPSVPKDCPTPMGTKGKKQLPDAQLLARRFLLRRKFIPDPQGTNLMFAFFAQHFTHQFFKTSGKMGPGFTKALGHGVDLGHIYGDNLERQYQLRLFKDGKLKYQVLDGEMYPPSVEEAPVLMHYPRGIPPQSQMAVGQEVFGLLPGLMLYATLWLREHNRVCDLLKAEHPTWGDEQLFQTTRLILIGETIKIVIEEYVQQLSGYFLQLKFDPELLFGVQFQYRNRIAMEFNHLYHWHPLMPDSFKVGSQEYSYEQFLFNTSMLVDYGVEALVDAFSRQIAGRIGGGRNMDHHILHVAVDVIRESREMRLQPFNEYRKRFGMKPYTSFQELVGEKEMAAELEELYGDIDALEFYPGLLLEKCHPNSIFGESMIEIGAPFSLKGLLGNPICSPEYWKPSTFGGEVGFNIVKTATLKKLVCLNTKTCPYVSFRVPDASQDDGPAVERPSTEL
Sequence of Histone deacetylase 1 (Q13547 whole entry): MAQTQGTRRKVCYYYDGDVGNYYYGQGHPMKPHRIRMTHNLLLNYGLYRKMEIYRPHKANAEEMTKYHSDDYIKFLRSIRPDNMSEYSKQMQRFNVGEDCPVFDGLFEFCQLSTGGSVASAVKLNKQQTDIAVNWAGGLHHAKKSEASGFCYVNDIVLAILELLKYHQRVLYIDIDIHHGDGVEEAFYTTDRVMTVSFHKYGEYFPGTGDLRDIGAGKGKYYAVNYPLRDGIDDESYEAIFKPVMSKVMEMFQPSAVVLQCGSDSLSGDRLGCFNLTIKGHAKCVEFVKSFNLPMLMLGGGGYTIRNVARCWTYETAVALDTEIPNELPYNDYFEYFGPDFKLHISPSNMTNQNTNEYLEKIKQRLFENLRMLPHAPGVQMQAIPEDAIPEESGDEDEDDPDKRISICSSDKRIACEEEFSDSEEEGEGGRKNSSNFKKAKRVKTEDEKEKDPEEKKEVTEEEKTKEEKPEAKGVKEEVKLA

SMILES: Cc1ccc(Nn2c(SCC(=O)Nc3nc4ccc(F)cc4s3)nc(C)c2C)cc1
- IC50 (C6): 16.3 µg/mL (≈ 37 µM)
- IC50 (HepG2; hepg2): 31.7 µg/mL

SMILES: Cc1ccc(Nn2c(SCC(=O)Nc3nc4ccc(C)cc4s3)nc(C)c2C)cc1
- IC50 (HepG2; hepg2): 26.3 µg/mL

SMILES: Cc1ccc2nc(N/N=C/c3cccnc3Nc3ccccc3)sc2c1
- IC50 (MCF7): 1690 nM

SMILES: Cc1ccc2nc(NC(=O)CSc3nc(C)c(C)n3Nc3ccc([N+](=O)[O-])cc3)sc2c1
- IC50 (C6): 15.7 µg/mL (≈ 33.4 µM)

SMILES: O=C(CNS(=O)(=O)c1cc(Cl)ccc1Cl)N1CCN(c2nc3ccccc3s2)CC1
- CC50 (DU-145): 9000 nM
- CC50 (HepG2; Homo sapiens, HepG2): 8000 nM

SMILES: COc1ccc(Cl)cc1C(=O)Nc1ccc(-c2nc3ccccc3s2)cc1
- IC50 (SiHa): 6130 nM

SMILES: Cc1ccc(Nn2c(SCC(=O)Nc3nc4ccc(Cl)cc4s3)nc(C)c2C)cc1
- IC50 (HepG2; hepg2): 29.3 µg/mL

SMILES: Cc1nc(SCC(=O)Nc2nc3ccc(F)cc3s2)n(Nc2ccc([N+](=O)[O-])cc2)c1C
- IC50 (HepG2; hepg2): > 500 µg/mL

SMILES: Cc1nc(SCC(=O)Nc2nc3ccccc3s2)n(Nc2ccc([N+](=O)[O-])cc2)c1C
- IC50 (C6): 24.3 µg/mL (≈ 53.5 µM)
- IC50 (HepG2; hepg2): 28.7 µg/mL

SMILES: O=C(CNS(=O)(=O)c1ccc(Cl)cc1)N1CCN(c2nc3ccccc3s2)CC1
- CC50 (DU-145): 8000 nM

SMILES: Nc1ccc(-c2nc3ccccc3s2)cc1
- IC50 (MCF7): 0.3 nM

SMILES: C=CCc1cccc(/C=N/NC(=O)CN2CCN(Cc3ccccc3)CC2)c1O [PAC-1]
- EC50 [5]: 410 nM

Continued, in another order:

- IC50 (Histone deacetylase 1): 4800 nM
SMILES: O=C(NO)c1ccc(S(=O)(=O)N2CCN(c3nc4ccccc4s3)CC2)cc1
- IC50 (HCC4017): 1630 nM
- IC50 [1]: 4000 nM

- GI50 (HeLa): 200 nM
- GI50 (A549): 200 nM
SMILES: O=C(CN1CCN(c2ccccc2F)CC1)Nc1ccc(-c2nc3ccccc3s2)cc1
- GI50 (MDA-MB-231 [2]): 200 nM

- GI50 (HeLa): 200 nM
- GI50 (A549): 200 nM
SMILES: O=C(CN1CCN(c2ccccc2)CC1)Nc1ccc(-c2nc3ccccc3s2)cc1
- GI50 (MDA-MB-231 [2]): 200 nM

- IC50 (MV4-11): 7510 nM
- IC50 (HeLa): 15000 nM
- IC50 (A549): 5420 nM
SMILES: O=C(Nc1cccc(-c2nc3ccccc3s2)c1)c1cccnc1
- IC50 (DB): 15000 nM
- IC50 (MCF7): 15000 nM
- IC50 (HepG2; Homo sapiens, HepG2, read-out: IC50): 15000 nM

- IC50 (A549): 12300 nM
- IC50 [3]: 9560 nM
- IC50 [4]: 100 nM
SMILES: CC(=O)N1N=C(C)/C(=N\Nc2cccc(-c3nc4ccccc4s3)c2)C1=O
- IC50 (MCF7): 12300 nM

- GI50 (HeLa): 200 nM
- GI50 (A549): 200 nM
SMILES: COc1cccc(-n2cc(CNc3ccc(-c4nc5ccccc5s4)cc3)nn2)c1
- GI50 (MDA-MB-231 [2]): 200 nM

- GI50 (HeLa): 200 nM
- GI50 (A549): 200 nM
SMILES: Clc1cccc(-n2cc(CNc3ccc(-c4nc5ccccc5s4)cc3)nn2)c1
- GI50 (MDA-MB-231 [2]): 200 nM

- IC50 (A549): 12300 nM
- IC50 [3]: 9560 nM
- IC50 [4]: 100 nM
SMILES: CC1=NN(c2ccccc2)C(=O)/C1=N/Nc1cccc(-c2nc3ccccc3s2)c1
- IC50 (MCF7): 12300 nM

- EC50 [5]: 310 nM
- IC50 (HT-29): 240 nM
- IC50 (SK-N-SH): 240 nM
- IC50 (NCI-H226): 240 nM
- IC50 (MKN-45): 240 nM
SMILES: CN(C)Cc1ccc2nc(NC(=O)N/N=C/c3ccc(OCc4ccc(C(F)(F)F)cc4)cc3O)sc2c1
- Ratio IC50 (MDA-MB-231 [6]): 4.24
- IC50 (MDA-MB-231 [2]): 240 nM

- GI50 (HeLa): 200 nM
- GI50 (A549): 200 nM
SMILES: Cc1ccc(N2CCN(CC(=O)Nc3ccc(-c4nc5ccccc5s4)cc3)CC2)cc1
- GI50 (MDA-MB-231 [2]): 200 nM
